According to patent publication US11072635B2, “Macrocyclic broad spectrum antibiotics” (priority 2015, dated 2021):
≈ marks a conversion by molar mass, not a printed value. Where two headings read alike, the source gives them in different places.

Tests used:
[1] = system: Methicillin Resistant Staphylococcus aureus strain USA 300, NRS384 (S. aureus); assay: Minimum inhibitory concentration, broth micro-dilution (CLSI); format: cell-based
Experimental: (§1) In vitro antimicrobial activity of each compound was determined by measuring minimal inhibitor concentrations (MICs) using the broth micro-dilution technique as approved by the Clinical and Laboratory Standards Institute (CLSI) (Methods for Dilution Antimicrobial Susceptibility Tests for Bacteria that Grow Aerobically; Approved Standard—Eighth Edition. CLSI document M07-A8. Wayne, Pa.: Clinical and Laboratory Standards; 2009). Antibacterial activity was measure against three strains of bacteria: a Methicillin Resistant Staphylococcus aureus strain USA 300, NRS384 (S. aureus); a strain of Escherichia coli MC4100 harboring the IMP4213 (E. coli IMP), which results in increased outer-membrane permeability (B Martin and Silhavy T. Imp/OstA is required for cell envelope biogenesis in Escherichia coli. (2002) Molecular Microbiology, 45(5), 1289-1302), and Escherichia coli ATCC 25922 (E. coli), a clinically relevant Gram-negative strain. Cells were inoculated onto plates of Trypyticase Soy Agar or Luria Agar respectively and grown at 35° C. for 20 hours. Inocula suspensions were prepared by scraping cells into 1 mL of testing media (cation adjusted Mueller Hinton Broth supplemented with 0.002% v/v Tween-80) and diluting to a final OD600 nm of 0.01.
(§2) Test compounds were prepared in DMSO at a concentration of 10 mg/mL. […] In protocol 2, the compound stocks were diluted into testing media at a concentration of 4 μg/mL and serial 2-fold dilutions were made in the same media, in 96-well U bottom microtiter dishes, for a total of 10 compound concentrations. In protocol 3, compound stocks were diluted into testing media at a concentration of 0.5 μg/mL, with serial 2-fold dilutions conducted as described above. […] Inocula suspensions were added to the 2-fold serial dilutions of test compounds to a final density of OD OD600 nm of 0.0005 and incubated at 35° C. for 22 hours.

[2] = system: Escherichia coli MC4100 harboring the IMP4213 (E. coli IMP); assay: microbe, parasite or virus in culture; format: cell-based; conditions: 22 h, read-out: MIC (μg/mL) E. coli IMP
Experimental: as §1, §2

[3] = system: Escherichia coli ATCC 25922 (E. coli); assay: Minimum inhibitory concentration, broth micro-dilution (CLSI); format: cell-based; conditions: read-out: MIC (μg/mL) E. coli
Experimental: Cells were inoculated onto plates of Trypyticase Soy Agar or Luria Agar respectively and grown at 35° C. for 20 hours. Inocula suspensions were prepared by scraping cells into 1 mL of testing media (cation adjusted Mueller Hinton Broth supplemented with 0.002% v/v Tween-80) and diluting to a final OD600 nm of 0.01.
as §2

[4] = molecular target: T1, SpsB (Staphylococcus aureus signal peptidase) (Staphylococcus aureus, UniProt P0A070); assay: Whole-cell SpsB biochemical screening assay (kinetic fluorogenic enzyme activity)
T1 construct: a suspension of Staphylococcus aureus cells as a source of SpsB instead of recombinant SpsB protein; endogenous in cells; host or cells: S. aureus, USA300 background, overexpressing SpsB (whole-cell suspension)
Experimental: A kinetic fluorogenic enzyme activity assay was used to assess inhibition of SpsB (Staphylococcus aureus signal peptidase) activity and IC50s were determined. This assay uses a suspension of Staphylococcus aureus cells as a source of SpsB instead of recombinant SpsB protein.
Cell preparation: Luria broth (LB) was inoculated with S. aureus (USA300 background, overexpressing SpsB) and shaken at 37° C. until an OD600 nm of 1.5-2.0 was reached (˜4 hr). The culture was then diluted to an OD600 nm of 1.0 with LB, aliquoted and centrifuged at 10,000×g for 2 mins. The supernatant was removed and the pellet was resuspended in phosphate buffer (1×PBS, 12.5 mg/L MgCl2, 25 mg/L CaCl2, 0.1% Tween-80) to an OD600 nm of 0.5, then centrifuged again at 10,000×g for 2 mins. The supernatant was removed and the pellets were frozen at −20° C.
Test compounds were prepared in DMSO at a concentration of 10 mg/mL. These compound stocks were diluted into DMSO to a concentration of 25 μg/mL and serial 3-fold dilutions were made in DMSO, for a total of 11 compound concentrations. 20 nL of each compound solution was pre-spotted into a white 384-well plate (50 μL/well polypropylene, Nunc) using acoustic fluid transfer (Echo).
Frozen S. aureus pellets were resuspended in assay buffer (1×PBS, 12.5 mg/L MgCl2, 25 mg/L CaCl2, 0.1% Tween-80) to an OD600 nm of 0.05, then mixed 1:1 (v/v) with 20 μM substrate ((Dabcyl)βAla-KPAKAAE(Edans)) in assay buffer, and this solution was added (20 μL/well) to the 384-well plate that had been pre-spotted with compound. Fluorescence intensity was then immediately read kinetically for 30 minutes with 2 minute read intervals to monitor cleavage of the internally quenched peptide substrate (excitation wavelength=340 nm, emission wavelength=490 nm, Molecular Devices Spectramax M5). Reaction rate (slope) was plotted against inhibitor concentration to derive the IC50.

[5] = MRSA / NRS 384 / USA300, 22 h, read-out: MIC (μg/mL) S. aureus
[6] = ATCC25922, E. coli ATCC 25922, 35° C., 22 hours
[7] = MRSA / NRS 384 / USA300, MRSA USA 300, NRS384, 35° C., 22 hours, cation adjusted Mueller Hinton Broth with 0.002% Tween-80, read-out: MIC (μg/mL) S. aureus

T1 sequence (P0A070 whole entry): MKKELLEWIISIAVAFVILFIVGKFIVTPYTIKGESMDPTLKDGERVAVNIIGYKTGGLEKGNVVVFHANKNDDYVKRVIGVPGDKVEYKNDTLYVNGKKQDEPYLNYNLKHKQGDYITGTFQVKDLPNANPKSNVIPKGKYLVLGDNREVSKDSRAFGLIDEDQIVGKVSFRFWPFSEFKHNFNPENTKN

Row | SMILES | MIC [1, 5] [µg/mL] | MIC [2] [µg/mL] | MIC ([3]; ATCC25922, 22 h) [µg/mL] | IC50 [4] [nM] | MIC [3, 6] [µg/mL] | MIC [1, 7] [µg/mL]
1 | CCCCCCCCc1ccc(C(=O)N[C@@H](CCN)C(=O)N(C)[C@@H]2C(=O)N[C@@H](C)C(=O)N[C@H](C(=O)NOC)Cc3ccc(OCCN)c(c3)-c3cc2ccc3OCCN)c(C)c1 [Compound 113] | 0.063 (≈ 0.0733 µM) | 0.047 (≈ 0.0547 µM) | 4 (≈ 4.66 µM) | 1.2 |  | 
2 | CCCCc1ccc(-c2ccc(C(=O)N[C@@H](CCCCN)C(=O)N(C)[C@@H]3C(=O)N[C@@H](C)C(=O)N[C@H](C(=O)NCCC#N)Cc4ccc(OCCN)c(c4)-c4cc3ccc4OCCN)cc2)cc1 [Compound 119] |  | 1 (≈ 1.09 µM) |  | 71 | 24 (≈ 26.2 µM) | 
3 | CCCCCCCCCCCCCC(=O)N[C@@H](CCCCN)C(=O)N(C)[C@@H]1C(=O)N[C@@H](C)C(=O)N[C@H](C(=O)NCCC#N)Cc2ccc(OCCN)c(c2)-c2cc1ccc2OCCN [Compound 120] |  | 0.5 (≈ 0.562 µM) |  | 18 | 16 (≈ 18 µM) | 2 (≈ 2.25 µM)
4 | CCCCc1ccc(-c2ccc(C(=O)N[C@@H](CCCCN)C(=O)N(C)[C@@H]3C(=O)N[C@@H](C)C(=O)N[C@H](C(=O)Nc4ccncc4C#N)Cc4ccc(OCCN)c(c4)-c4cc3ccc4OCCN)cc2)cc1 [Compound 121] |  | 0.25 (≈ 0.259 µM) |  | 12 | 8 (≈ 8.29 µM) | 4 (≈ 4.14 µM)
5 | CCCCc1ccc(-c2ccc(C(=O)N[C@@H](CN)C(=O)N(C)[C@@H]3C(=O)N[C@@H](C)C(=O)N[C@H](c4nnn[nH]4)Cc4ccc(OCCN)c(c4)-c4cc3ccc4OCCN)cc2)cc1 [Compound 123] |  | < 0.063 |  | 15 | 8 (≈ 9.46 µM) | 1.5 (≈ 1.77 µM)
6 | CCCCc1ccc(-c2ccc(C(=O)N[C@@H](CN)C(=O)N(C)[C@@H]3C(=O)N[C@@H](C)C(=O)N[C@H](C#N)Cc4ccc(OCCN)c(c4)-c4cc3ccc4OCCN)cc2)cc1 [Compound 124] |  | 0.5 (≈ 0.623 µM) |  | 14 | 8 (≈ 9.96 µM) | 1 (≈ 1.25 µM)
7 | CCCCc1ccc(-c2ccc(C(=O)N[C@@H](CN)C(=O)N(C)[C@@H]3C(=O)N[C@@H](C)C(=O)N[C@H](c4noc(=O)[nH]4)Cc4ccc(OCCN)c(c4)-c4cc3ccc4OCCN)cc2)cc1 [Compound 125] |  | 0.036 (≈ 0.0418 µM) |  | 1 | 0.5 (≈ 0.58 µM) | 0.38 (≈ 0.441 µM)
8 | CCCCc1ccc(-c2ccc(C(=O)N[C@@H](CN)C(=O)N(C)[C@@H]3C(=O)N[C@@H](C)C(=O)N[C@H](c4n[nH]c(=O)[nH]4)Cc4ccc(OCCN)c(c4)-c4cc3ccc4OCCN)cc2)cc1 [Compound 126] |  | 0.031 (≈ 0.036 µM) |  | 6.2 | 1 (≈ 1.16 µM) | 4 (≈ 4.65 µM)
9 | CCCCc1ccc(-c2ccc(C(=O)N[C@@H](CN)C(=O)N(C)[C@@H]3C(=O)N[C@@H](C)C(=O)N[C@H](CC#N)Cc4ccc(OCCN)c(c4)-c4cc3ccc4OCCN)cc2)cc1 [Compound 127] |  | 2 (≈ 2.45 µM) |  | 2.7 | 32 (≈ 39.2 µM) | 2 (≈ 2.45 µM)
10 | CCCCc1ccc(-c2ccc(C(=O)N[C@@H](CCCN)C(=O)N(C)[C@@H]3C(=O)N[C@@H](C)C(=O)N[C@H](C(=O)NS(N)(=O)=O)Cc4ccc(OCCN)c(c4)-c4cc3ccc4OCCN)cc2)cc1 [Compound 128] | 1.5 (≈ 1.62 µM) | 0.012 (≈ 0.0129 µM) | 0.75 (≈ 0.808 µM) | 1.5 |  | 
11 | C#CCNC(=O)[C@@H]1Cc2ccc(OCCN)c(c2)-c2cc(ccc2OCCN)[C@H](N(C)C(=O)[C@H](CCCN)NC(=O)c2ccc(-c3ccc(CCCC)cc3)cc2)C(=O)N[C@@H](C)C(=O)N1 [Compound 129] | 0.5 (≈ 0.564 µM) | 0.094 (≈ 0.106 µM) | 4 (≈ 4.51 µM) | 2.2 |  | 
12 | CCCCCCCCc1ccc(C(=O)N[C@@H](CCN)C(=O)N(C)[C@@H]2C(=O)N[C@@H](C)C(=O)N[C@H](c3noc(=O)[nH]3)Cc3ccc(OCCN)c(c3)-c3cc2ccc3OCCN)c(C)c1 [Compound 131] |  | 0.0078 (≈ 0.00896 µM) |  | 2.1 | 0.5 (≈ 0.575 µM) | 0.094 (≈ 0.108 µM)
13 | CCCCCCCCc1ccc(C(=O)N[C@@H](CCN)C(=O)N(C)[C@@H]2C(=O)N[C@@H](C)C(=O)N[C@H](c3noc(=S)[nH]3)Cc3ccc(OCCN)c(c3)-c3cc2ccc3OCCN)c(C)c1 [Compound 133] |  | 0.094 (≈ 0.106 µM) |  | 2.3 | 8 (≈ 9.03 µM) | 1 (≈ 1.13 µM)
14 | CCCCc1ccc(-c2ccc(C(=O)N[C@@H](CCCN)C(=O)N(C)[C@@H]3C(=O)N[C@@H](C)C(=O)N[C@H](C(=O)NC#N)Cc4ccc(OCCN)c(c4)-c4cc3ccc4OCCN)cc2)cc1 [Compound 134] |  | 0.13 (≈ 0.149 µM) |  | 7.1 | 4 (≈ 4.58 µM) | 1 (≈ 1.14 µM)
15 | CCCCc1ccc(-c2ccc(C(=O)N[C@@H](CCCN)C(=O)N(C)[C@@H]3C(=O)N[C@@H](C)C(=O)N[C@H](c4nccc(=O)[nH]4)Cc4ccc(OCCN)c(c4)-c4cc3ccc4OCCN)cc2)cc1 [Compound 135] | > 4 | 1.5 (≈ 1.67 µM) | 32 (≈ 35.6 µM) |  |  | 
16 | CCCCc1ccc(-c2ccc(C(=O)N[C@@H](CCCN)C(=O)N(C)[C@@H]3C(=O)N[C@@H](C)C(=O)N[C@H](C(=O)NO)Cc4ccc(OCCN)c(c4)-c4cc3ccc4OCCN)cc2)cc1 [Compound 136] | 0.38 (≈ 0.439 µM) | 0.13 (≈ 0.15 µM) | 2 (≈ 2.31 µM) | 1.2 |  | 
17 | CCCCc1ccc(-c2ccc(C(=O)N[C@@H](CCCN)C(=O)N(C)[C@@H]3C(=O)N[C@@H](C)C(=O)N[C@H](C(=O)NN)Cc4ccc(OCCN)c(c4)-c4cc3ccc4OCCN)cc2)cc1 [Compound 137] | 0.5 (≈ 0.579 µM) | 0.094 (≈ 0.109 µM) | 3 (≈ 3.47 µM) | 1.4 |  | 
18 | CCCCc1ccc(-c2ccc(C(=O)N[C@@H](CCCN)C(=O)N(C)[C@@H]3C(=O)N[C@@H](C)C(=O)N[C@H](/C=C/C#N)Cc4ccc(OCCN)c(c4)-c4cc3ccc4OCCN)cc2)cc1 [Compound 138] | 4 (≈ 4.67 µM) | 0.5 (≈ 0.583 µM) | 16 (≈ 18.7 µM) |  |  | 
19 | C=CC(=O)N(C)NC(=O)[C@@H]1Cc2ccc(OCCN)c(c2)-c2cc(ccc2OCCN)[C@H](N(C)C(=O)[C@H](CCN)NC(=O)c2ccc(CCCC)cc2C)C(=O)N[C@@H](C)C(=O)N1 [Compound 144] |  | 2 (≈ 2.34 µM) |  |  | 64 (≈ 74.8 µM) | > 4
20 | C[C@@H]1NC(=O)[C@@H](N(C)C(=O)[C@H](CCCCN)NC(=O)c2ccc(-c3ccc(Cl)cc3)cc2)c2ccc(O)c(c2)-c2cc(ccc2O)C[C@@H](C(=O)NN(C)C(=O)CCl)NC1=O [Compound 145] | 2 (≈ 2.32 µM) | 4 (≈ 4.65 µM) | > 64 |  |  | 
21 | CCCCCCc1ccc(C(=O)N[C@@H](CCN)C(=O)N(C)[C@@H]2C(=O)N[C@@H](C)C(=O)N[C@H](C(=O)O)Cc3ccc(O)c(c3)-c3cc2ccc3O)c(C)c1 [Compound 146] | > 4 | 0.75 (≈ 1.05 µM) | > 64 |  |  | 
